Reference: PubChem BioAssay (NCI)
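Interpolation was linear, between the two tested concentrations surrounding the appropriate level; five concentrations were tested over 48 hours in 96-well plates. At the TGI there is no net growth.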

Legend:
Assay in all cases: growth of human tumour cells (NCI), 48 h
[1] = test system: UACC-62 melanoma
[2] = test system: COLO 205 colon
[3] = test system: UO-31 renal
[4] = test system: T-47D breast
[5] = test system: M14 melanoma
[6] = test system: SK-OV-3 ovarian
[7] = test system: A498 renal
[8] = test system: TK-10 renal
[9] = test system: LOX IMVI melanoma
[10] = test system: K-562 leukemia
[11] = test system: PC-3 prostate
[12] = test system: NCI-H522 lung
[13] = test system: OVCAR-4 ovarian
[14] = test system: MDA-MB-231 breast
[15] = test system: MOLT-4 leukemia
[16] = test system: BT-549 breast
[17] = test system: SW-620 colon
[18] = test system: SF-268 CNS
[19] = test system: MCF7 breast
[20] = test system: NCI/ADR-RES ovarian
[21] = test system: HCT-15 colon
[22] = test system: DU-145 prostate
[23] = test system: OVCAR-3 ovarian
[24] = test system: UACC-257 melanoma
[25] = test system: OVCAR-5 ovarian
[26] = test system: MALME-3M melanoma
[27] = test system: HCT-116 colon
[28] = test system: HOP-62 NSCLC
[29] = test system: CCRF-CEM leukemia
[30] = test system: SNB-19 CNS
[31] = test system: U251 CNS
[32] = test system: IGROV1 ovarian
[33] = test system: HOP-92 NSCLC
[34] = test system: ACHN renal
[35] = test system: A549 NSCLC
[36] = test system: HL-60(TB) leukemia
[37] = test system: SF-295 CNS
[38] = test system: SK-MEL-5 melanoma
[39] = test system: 786-0 renal
[40] = test system: HCC-2998 colon
[41] = test system: EKVX NSCLC
[42] = test system: SN12C renal
[43] = test system: CAKI-1 renal
[44] = test system: KM12 colon
[45] = test system: SF-539 CNS
[46] = test system: MDA-N
[47] = test system: SK-MEL-28 melanoma
[48] = test system: RPMI-8226 leukemia
[49] = test system: MDA-MB-435
[50] = test system: OVCAR-8 ovarian
[51] = test system: SK-MEL-2 melanoma
[52] = test system: HT29 colon
[53] = test system: RXF 393 renal
[54] = test system: NCI-H23 lung
[55] = test system: NCI-H460 lung
[56] = test system: HS 578T breast

COc1cc2c(c(OC)c1O)-c1ccc(OC)c(=O)cc1[C@@H](NC(=O)C(F)(F)F)CC2
TGI [1]: > 100 µM | TGI [2]: 0.0933 µM | TGI [3]: > 100 µM | TGI [4]: > 100 µM | TGI [5]: > 100 µM | TGI [6]: > 100 µM | TGI [7]: 2.21 µM | TGI [8]: > 100 µM | TGI [9]: > 100 µM | TGI [10]: > 100 µM | TGI [11]: 0.588 µM | TGI [12]: 0.0665 µM | TGI [13]: > 100 µM | TGI [14]: 0.628 µM | TGI [15]: > 100 µM | TGI [16]: > 100 µM | TGI [17]: > 100 µM | TGI [18]: > 100 µM | TGI [19]: > 100 µM | TGI [20]: > 100 µM | TGI [21]: > 100 µM | TGI [22]: > 100 µM | TGI [23]: 0.151 µM | TGI [24]: > 100 µM | TGI [25]: > 100 µM | TGI [26]: > 100 µM | TGI [27]: > 40.8 µM | TGI [28]: 2.4 µM | TGI [29]: > 100 µM | TGI [30]: > 100 µM | TGI [31]: > 100 µM | TGI [32]: 0.695 µM | TGI [33]: > 100 µM | TGI [34]: > 100 µM | TGI [35]: > 100 µM | TGI [36]: 2.55 µM | TGI [37]: > 100 µM | TGI [38]: 0.0668 µM | TGI [39]: > 100 µM | TGI [40]: 14.1 µM | TGI [41]: > 100 µM | TGI [42]: > 100 µM | TGI [43]: > 100 µM | TGI [44]: > 100 µM | TGI [45]: 0.087 µM | TGI [46]: 0.0628 µM | TGI [47]: > 100 µM | TGI [48]: 0.0699 µM | TGI [49]: 0.055 µM | TGI [50]: > 100 µM

CC1(C)O[C@H]([C@H](O)c2nnc3ccc(Cl)nn23)[C@@H]([C@H]2COC(C)(C)O2)O1
TGI [1]: > 100 µM | TGI [2]: > 100 µM | TGI [4]: > 100 µM | TGI [5]: > 100 µM | TGI [6]: > 100 µM | TGI [7]: > 100 µM | TGI [8]: > 100 µM | TGI [51]: > 100 µM | TGI [9]: > 100 µM | TGI [52]: > 100 µM | TGI [11]: > 100 µM | TGI [12]: > 100 µM | TGI [13]: > 100 µM | TGI [14]: > 100 µM | TGI [15]: > 100 µM | TGI [16]: > 100 µM | TGI [17]: > 100 µM | TGI [18]: > 100 µM | TGI [19]: > 100 µM | TGI [20]: > 100 µM | TGI [21]: > 100 µM | TGI [22]: > 100 µM | TGI [23]: > 100 µM | TGI [24]: > 100 µM | TGI [53]: > 100 µM | TGI [25]: > 100 µM | TGI [26]: > 100 µM | TGI [54]: > 100 µM | TGI [27]: > 100 µM | TGI [28]: > 100 µM | TGI [29]: > 100 µM | TGI [30]: > 100 µM | TGI [31]: > 100 µM | TGI [32]: > 100 µM | TGI [34]: > 100 µM | TGI [35]: > 100 µM | TGI [36]: > 100 µM | TGI [37]: > 100 µM | TGI [38]: > 100 µM | TGI [39]: > 100 µM | TGI [40]: > 100 µM | TGI [41]: > 100 µM | TGI [42]: > 100 µM | TGI [43]: > 100 µM | TGI [44]: > 100 µM | TGI [45]: > 100 µM | TGI [46]: > 100 µM | TGI [47]: > 100 µM | TGI [48]: > 100 µM | TGI [49]: > 100 µM | TGI [50]: > 100 µM | TGI [55]: > 100 µM | TGI [56]: > 100 µM
